{
  "source": "patent US4153709A",
  "about": "“N-Heterocyclic ureas as immune regulants” (Eli Lilly and Company, priority 1977, dated 1979)",
  "key": {"[1]": {"tested_on": "antibody to sheep red blood cells", "experiment": "Oral immunoregulating activity in marmosets (Table 17)", "format": "in vivo", "method": "The animals in the treated group received 10 daily 100 mg/kg doses of the drug by oral gavage. On the 4th treatment day, these animals and a similar group of controls were given intraperitoneal injections of 1×10^9 sheep red blood cells. On the 12th day following antigen injection, serum levels of antibody were determined.\n*Notation: Day 0 = day of antigen injection, Day -1 = day previous, Day +"}, "[2]": {"tested_on": "fatal glomerulonephritis in NZB/w mice", "format": "in vivo", "details": "for MST (mean survival time) / Percent Survivors: 300th day", "from_the_text": "NZB/w mice provide a close model of the human autoimmune disease, lupus erythematosis. These hybrid mice develop antinuclear antoantibody in the early months of life, which antibody becomes deposited in the glomeruli in the form of a complex with the inciting antigen. A fatal glomerulonephritis ensues. A group of these mice had been placed under continuous therapy (via the feed) with 1-(6-methoxy-2-benzothiazolyl)-3-) phenyl urea for 300 days. The mice were divided into three subgroups, 10 mice receiving 75 mg/kg/day of drug, 10 mice receiving 25 mg/kg/day, and 11 mice serving as untreated controls.\nIn view of the close parallel of this murine model to the human counterpart, this would appear of significance in terms of long-term human therapy."}, "[3]": {"tested_on": "antibody response to sheep blood cells (hemaglutination titer)", "experiment": "Immune regulating test: suppression of hemaglutination titer by 4-fold factor in mice (i.p. drug, i.p. sheep blood cells), Tables 1-15", "format": "in vivo, Swiss mice", "details": "Mus musculus, ip, 192 h, × 3, intraperitoneal, minimum dose to suppress the hemaglutination titer by a 4-fold factor, 8 days after antigen, read-out: Immuno-Suppressant ED4-Fold", "in_short": "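Groups of five 20-gram Swiss mice received compound i.p. and sheep blood cell antigen i.p.; sera pooled per group eight days after antigen. Hemagglutination titers of pooled sera compared with controls; value is the minimum dose suppressing titer 4-fold versus control.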"}, "[4]": {"tested_on": "Salmonella typhimurium G46 missense histidine-auxotroph", "experiment": "Host mediated assay (in vivo mutagenicity), G46 indicator (Table 22)", "parameters": "species or system Salmonella typhimurium in Cox white Swiss male mice", "details": "s.c.", "method": "Cox white Swiss male mice 25-30 grams were used in all in vivo tests.\nA. Drug Administration: Appropriate solvents were used where applicable with a solvent control run within each test. […] The organisms were grown to stationary phase, then diluted with normal saline to give an inoculum near 1×10^8 organisms per milliliter. The abdominal area of the drug-treated mouse was swabbed with alcohol and two milliliters of bacterial culture were injected into the abdominal cavity of the mouse. The mice were returned to their cages for 3-4 hours.\nC. Autopsy and Recovery: The mice were sacrificed individually by cervical dislocation prior to each autopsy. The abdominal areas were soaked with ethanol. The peritoneum was bared and 2.5 ml. of sterile normal saline was injected into the peritoneal cavity using a sterile (3-ml. plastic syringe with a 20-gauge needle. After insertion, the needle is turned bevel up and the saline was expelled into the cavity; while the needle remains through the peritoneum, keeping the point of the needle in sight pressed against the peritoneal wall, the abdomen of the mouse was massaged to mix contents. The saline wash was removed from the abdominal cavity back into the syringe. The needle was removed and the contents expelled into an appropriately marked tube and iced 4° C.\nD. Dilution and Plating: One-ml. samples were plated at 10° dilution on all mice to determine revertants (histidine+).\nA one-milliliter sample from the untreated dilutions from control animals is plated 10^-6, 10^-7, and 10^-8 dilutions with excess histidine to determine mutable population (histidine-)."}, "[5]": {"details": "10 daily 100 mg/kg doses oral, individual marmoset, 100 mg/kg"}},
  "note": "Several values for one entry are separate records, joined by “and”; a condition that tells them apart may be missing. Equal values may be shown once. Read-outs that look alike come from different tables or passages of the source.",
  "data": [
    {"smiles": "COc1ccc2nc(NC(=O)Nc3ccccc3)sc2c1", "note": "[Table 11: phenyl, 6-CH3 O, S, 1-(6-methoxy-2-benzothiazolyl)-3-phenyl urea]", "values": [
      {"measurement": "detectable antibody response", "setting": "[1]; 10 daily 100 mg/kg doses by oral gavage, 12th day following antigen, control four out of five", "value": "none of the treated marmosets showed a detectable response"},
      {"measurement": "Weight Change (%) Day +6 to +19", "setting": "[1]; [5]", "value": "-6.8% and +9.1% and +6.0% and +5.7%"},
      {"measurement": "Weight Change (%) Day -7 to +6", "setting": "[1]; [5]", "value": "-18.8% and -6.2% and -21.4% and -5.7% and -8.2%"},
      {"measurement": "Antibody Titer (reciprocal) Day +12", "setting": "[1]; 10 daily 100 mg/kg doses oral, individual marmoset, Day 0 = antigen injection", "value": "< 5"},
      {"measurement": "animals gaining weight by the 19th day", "setting": "[1]; 10 daily 100 mg/kg doses oral, treated group", "value": "four of the five animals were gaining weight"},
      {"measurement": "MST (mean survival time)", "setting": "[2]; 25 mg/kg/day in feed", "value": 214, "unit": "days"},
      {"measurement": "Percent Survivors", "setting": "[2]; 25 mg/kg/day in feed", "value": 60, "unit": "%"},
      {"measurement": "Day of Death", "setting": "[2]; 75 mg/kg/day in feed, 10 mice, 300 days", "value": "180,281"},
      {"measurement": "MST (mean survival time)", "setting": "[2]; 75 mg/kg/day in feed", "value": 286, "unit": "days"},
      {"measurement": "Percent Survivors", "setting": "[2]; 75 mg/kg/day in feed", "value": 80, "unit": "%"},
      {"measurement": "effect on survival parameters", "setting": "[2]; 300 days of therapy, 25 and 75 mg/kg/day", "value": "A dose-related effect of the drug on survival parameters"},
      {"measurement": "effect on life span", "setting": "[2]; female NZBxW mice", "value": "able to prolong the life of female NZBxW mice"},
      {"measurement": "minimal effective dose", "setting": "[3]", "value": "< 25", "unit": "mg/kg"},
      {"measurement": "IN VIVO mutants test/mutants control", "setting": "[4]; 3 mg/kg", "value": ".95"},
      {"measurement": "IN VIVO mutants test/mutants control", "setting": "[4]; 30 mg/kg", "value": ".95"},
      {"measurement": "IN VIVO mutants test/mutants control", "setting": "[4]; 300 mg/kg, MT/MC of 3 would indicate mutagenic potential", "value": 1.2},
      {"measurement": "IN VIVO mutants test/mutants control", "setting": "[4]; .3 mg/kg", "value": 1.25}
    ]}
  ]
}
